Tested on: dollar spot
Assay: Field trial: dollar spot counts on putting-green plots
Format: in vivo, Sclerotinia homoeocarpa
Settings: Table 2a; combination even with half the recommended application rate of boscalid
Source text: Studies were established in a completely randomized design with three replications. The treatments included an untreated (fertilizer only) treatment and twenty-three rate/interval combinations of Civitas™ and Emerald™. The label-recommended rates of Civitas™ application to control dollar spot on turfgrass are 8-32 oz/1000 sq.ft. The label-recommended rate of Emerald™ application to control dollar spot on turfgrass is 0.13 oz/1000 sq.ft.
Initial treatments were made on June 16 and continued for 15 weeks (final treatments were made on September 27). […]
Precipitation was such that supplemental irrigation was not required on a regular basis. […] Treatment differences at individual measurement events were evaluated using analysis of variance and Fisher's protected least significant difference (LSD). […]
Applying the approach to identifying synergy as set out in S. R. Colby, “Calculating synergistic and antagonistic responses of herbicide combinations”, Weeds 15, 20-22 (1967), expected efficacy, E, may be expressed as: E=X+Y(100−X)/100, where X is the efficacy, expressed in % of the untreated control, of the first composition (boscalid), and Y is the efficacy, expressed in % of the untreated control, of the second composition (Civitas).

Question: With `O=C(Nc1ccccc1-c1ccc(Cl)cc1)c1cccnc1Cl` [boscalid, 2-chloro-N-(4′-chloro[1,1′-biphenyl]-2-yl)-nicotinamide] as the compound, how does the “sustained elimination of dollar spot” value read?
Answer: neither boscalid alone nor CIVITAS alone are capable of sustained elimination of dollar spot

Reference: patent US9750249B2, “Synergistic paraffinic oil and boscalid fungicides” (priority 2010, dated 2017)
